Source: patent US8895733B2 (Novartis AG, priority 2010, dated 2014)

What follows are molecules tested against T1, Nav 1.7 (Homo sapiens, UniProt Q15858) (assay: Whole-cell voltage clamp electrophysiology, automated patch clamp (marker c in Table of Examples)). Details: marker c: Automated patch clamp data; read-out: Nav 1.7 activity.
T1 construct: expressed in transfected cells
Type: cell-based
Text: a.IonWork Quattro data, b=Manual patch clamp data, c=Automated patch clamp data M=Method
Whole-Cell Voltage Clamp Electrophysiology Assay
Patch-clamp electrophysiology is considered the gold standard technique for investigation of ion channel function and pharmacology. Using this method, sodium channel currents can be measured in cells, which stably (or transiently) express the sodium channel subtype of interest. Application of compounds during such experiments provides a functional measure of the activity and potency of compounds affecting the ion channel of interest.
Electrophysiological studies can be performed using automated or manual patch-clamp techniques. Automated patch-clamp instruments suitable for this work include the Ion Works HT (MDS), Ion Works Quattro (MDS), PatchLiner (Nanion technologies), Port-A-Patch (Nanion technologies), QPatch (Sophion) or any other suitable platform.
For recording in automated patch-clamp instruments, cells expressing the voltage-gated sodium channel subtype of interest are dispensed in appropriate chips (plates with more than one recording chambers each containing one or more apertures to generate whole-cell patches), as provided by the manufacturer. Typically, the whole-cell perforated patch configuration is used for probing the pharmacology of compounds in automated patch-clamp electrophysiology on sodium channels. Extracellular and intracellular buffers for such experiments are composed according to the literature, or according to the instructions provided by the manufacturer of the instruments. Test solutions, which contain the compounds to be tested, are applied to the cells expressing the sodium channel of interest by a pipetting system, typically integrated into the robots.
A suitable voltage stimulus protocol is used to activate voltage-gated sodium channel proteins of interest. A typical stimulus protocol may consist of sweeps of sequential voltage pulses starting from a holding potential (i.e. −65 mV), to a more positive and depolarising test pulse potential (i.e. −10 mV) and finally to a more negative and hyperpolarising potential (i.e. −100 mV). According to the biophysics of the voltage-gated ion channel of interest and interest in channel configuration the voltages and durations of the pulses as well as the overall frequency of sweeps applied might vary. Accordingly, a stimulus protocol was designed to assess compounds due to their potential to block NaV1.7 channels primarily in inactivated state. Selectivity over other voltage-gated sodium channel members was assessed by protocols that reflect the native function of the channels (i.e. heart rate or firing of neurons).

T1 sequence (Q15858 whole entry): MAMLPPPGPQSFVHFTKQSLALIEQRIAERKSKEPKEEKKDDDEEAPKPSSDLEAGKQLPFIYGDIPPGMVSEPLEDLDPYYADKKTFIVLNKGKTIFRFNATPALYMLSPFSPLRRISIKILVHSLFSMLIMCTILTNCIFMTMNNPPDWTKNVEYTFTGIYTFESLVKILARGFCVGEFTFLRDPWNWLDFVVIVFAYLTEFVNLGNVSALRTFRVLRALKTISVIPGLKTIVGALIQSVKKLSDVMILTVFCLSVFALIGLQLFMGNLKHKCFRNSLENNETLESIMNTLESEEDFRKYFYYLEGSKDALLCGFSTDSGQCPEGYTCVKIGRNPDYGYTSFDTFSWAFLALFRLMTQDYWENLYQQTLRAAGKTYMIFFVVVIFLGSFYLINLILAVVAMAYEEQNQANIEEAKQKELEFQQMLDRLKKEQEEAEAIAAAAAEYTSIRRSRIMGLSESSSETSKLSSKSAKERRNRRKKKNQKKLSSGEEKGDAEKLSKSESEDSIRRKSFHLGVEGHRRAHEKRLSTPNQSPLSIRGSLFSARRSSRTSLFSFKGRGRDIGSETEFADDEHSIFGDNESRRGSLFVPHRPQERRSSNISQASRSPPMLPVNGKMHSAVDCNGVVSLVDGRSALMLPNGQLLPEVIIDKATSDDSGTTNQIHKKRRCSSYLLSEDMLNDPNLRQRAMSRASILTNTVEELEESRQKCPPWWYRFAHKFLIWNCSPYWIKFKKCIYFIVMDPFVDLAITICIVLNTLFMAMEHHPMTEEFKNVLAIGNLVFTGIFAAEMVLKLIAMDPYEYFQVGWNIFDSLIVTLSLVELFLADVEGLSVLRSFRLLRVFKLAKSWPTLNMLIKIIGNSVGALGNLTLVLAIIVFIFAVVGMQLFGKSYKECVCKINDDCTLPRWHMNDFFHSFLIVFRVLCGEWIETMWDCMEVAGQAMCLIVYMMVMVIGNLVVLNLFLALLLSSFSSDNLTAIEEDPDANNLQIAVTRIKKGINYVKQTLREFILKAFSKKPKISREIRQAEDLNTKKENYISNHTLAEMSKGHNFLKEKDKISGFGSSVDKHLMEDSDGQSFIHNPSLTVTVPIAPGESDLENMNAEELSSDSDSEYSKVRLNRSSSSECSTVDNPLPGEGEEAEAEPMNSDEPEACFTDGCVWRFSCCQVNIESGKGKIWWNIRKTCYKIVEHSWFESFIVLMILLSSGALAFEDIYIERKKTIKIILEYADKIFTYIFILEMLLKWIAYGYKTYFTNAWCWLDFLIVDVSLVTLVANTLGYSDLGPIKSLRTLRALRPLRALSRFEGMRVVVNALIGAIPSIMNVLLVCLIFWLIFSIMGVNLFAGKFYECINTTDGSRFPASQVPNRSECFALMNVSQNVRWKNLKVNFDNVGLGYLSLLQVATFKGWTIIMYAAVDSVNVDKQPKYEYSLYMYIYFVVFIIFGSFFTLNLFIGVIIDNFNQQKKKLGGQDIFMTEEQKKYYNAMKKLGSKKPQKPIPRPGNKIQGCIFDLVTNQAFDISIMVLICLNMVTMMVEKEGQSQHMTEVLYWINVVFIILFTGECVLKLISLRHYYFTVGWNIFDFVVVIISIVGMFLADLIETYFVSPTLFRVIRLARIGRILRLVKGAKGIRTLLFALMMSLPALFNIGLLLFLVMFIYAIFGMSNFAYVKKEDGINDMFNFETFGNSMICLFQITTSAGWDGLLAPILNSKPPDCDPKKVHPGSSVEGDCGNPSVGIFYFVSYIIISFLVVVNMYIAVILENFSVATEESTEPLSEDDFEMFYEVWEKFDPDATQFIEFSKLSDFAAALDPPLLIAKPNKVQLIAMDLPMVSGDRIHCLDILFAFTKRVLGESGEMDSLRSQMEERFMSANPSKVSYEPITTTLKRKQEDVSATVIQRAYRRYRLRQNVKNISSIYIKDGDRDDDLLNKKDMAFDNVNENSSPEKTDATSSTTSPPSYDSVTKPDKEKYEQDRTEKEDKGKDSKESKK

Point of comparison: `CN(c1cccc(Cl)c1)c1nc(N)nc(-c2noc(-c3ccccc3Cl)n2)n1` [Example 84, N-(3-Chloro-phenyl)-6-[5-(2-chloro-phenyl)-[1,2,4]oxadiazol-3-yl]-N-methyl-[1,3,5]triazine-2,4-diamine], IC50 170 nM. Against it:
- CN(c1ccccc1)c1nc(N)nc(-c2noc(-c3ccc(C#N)nc3)n2)n1 [Example 78, 5-{3-[4-Amino-6-(methyl-phenyl-amino)-[1,3,5]triazin-2-yl]-[1,2,4]oxadiazol-5-yl}-pyridine-2-carbonitrile] — 9.8-fold higher, 1660 nM
- CN(c1ccccc1)c1nc(N)nc(-c2noc(-c3ccc(C(=O)N4CCOCC4)s3)n2)n1 [Example 79, (5-{3-[4-Amino-6-(methyl-phenyl-amino)-[1,3,5]triazin-2-yl]-[1,2,4]oxadiazol-5-yl}-thiophen-2-yl)-morpholin-4-yl-methanone] — 5.7-fold higher, 977 nM
- CN(c1ccccc1)c1nc(N)nc(-c2noc(-c3ccccc3C#N)n2)n1 [Example 80, 2-{3-[4-Amino-6-(methyl-phenyl-amino)-[1,3,5]triazin-2-yl]-[1,2,4]oxadiazol-5-yl}-benzonitrile] — 1.5-fold higher, 260 nM
- COc1cccc(-c2nc(-c3nc(N)nc(N(C)c4cccc(Cl)c4)n3)no2)c1 [Example 83, N-(3-Chloro-phenyl)-6-[5-(3-methoxy-phenyl)-[1,2,4]oxadiazol-3-yl]-N-methyl-[1,3,5]triazine-2,4-diamine] — 4.1-fold higher, 691 nM
- COc1cccc(-c2nc(-c3nc(N)nc(N(C)c4cccc(F)c4)n3)no2)c1 [Example 85, N-(3-Fluoro-phenyl)-6-[5-(3-methoxy-phenyl)-[1,2,4]oxadiazol-3-yl]-N-methyl-[1,3,5]triazine-2,4-diamine] — 7.5-fold higher, 1270 nM
- Cc1ccc(-c2nc(-c3nc(N)nc(N(C)c4cccc(F)c4)n3)no2)o1 [Example 87, N-(3-Fluoro-phenyl)-N-methyl-6-[5-(5-methyl-furan-2-yl)-[1,2,4]oxadiazol-3-yl]-[1,3,5]triazine-2,4-diamine] — 21-fold higher, 3490 nM
- COc1cccc(-c2nc(-c3nc(N)nc(N(C)c4ccccc4F)n3)no2)c1 [Example 88, N-(2-Fluoro-phenyl)-6-[5-(3-methoxy-phenyl)-[1,2,4]oxadiazol-3-yl]-N-methyl-[1,3,5]triazine-2,4-diamine] — 2.1-fold higher, 361 nM
- COc1ccccc1-c1nc(-c2nc(N)nc(N(C)c3ccccc3F)n2)no1 [Example 89, N-(2-Fluoro-phenyl)-6-[5-(2-methoxy-phenyl)-[1,2,4]oxadiazol-3-yl]-N-methyl-[1,3,5]triazine-2,4-diamine] — within 1.5-fold, 200 nM
- CN(c1nc(N)nc(-c2noc(-c3cccs3)n2)n1)c1ccccc1F [Example 90, N-(2-Fluoro-phenyl)-N-methyl-6-(5-thiophen-2-yl-[1,2,4]oxadiazol-3-yl)-[1,3,5]triazine-2,4-diamine] — 2.4-fold higher, 415 nM
- Cc1ccc(-c2nc(-c3nc(N)nc(N(C)c4ccccc4F)n3)no2)o1 [Example 91, N-(2-Fluoro-phenyl)-N-methyl-6-[5-(5-methyl-furan-2-yl)-[1,2,4]oxadiazol-3-yl]-[1,3,5]triazine-2,4-diamine] — 3.2-fold higher, 547 nM
- COc1ccccc1-c1nc(-c2nc(N)nc(N(C)c3cccc(C)c3)n2)no1 [Example 92, 6-[5-(2-Methoxy-phenyl)-[1,2,4]oxadiazol-3-yl]-N-methyl-N-m-tolyl-[1,3,5]triazine-2,4-diamine] — 3-fold higher, 511 nM
- Cc1cccc(N(C)c2nc(N)nc(-c3noc(-c4cccs4)n3)n2)c1 [Example 93, N-Methyl-6-(5-thiophen-2-yl-[1,2,4]oxadiazol-3-yl)-N-m-tolyl-[1,3,5]triazine-2,4-diamine] — 5.5-fold higher, 931 nM
- CCN(c1ccccc1)c1nc(N)nc(-c2noc(-c3cccc(OC)c3)n2)n1 [Example 94, N-Ethyl-6-[5-(3-methoxy-phenyl)-[1,2,4]oxadiazol-3-yl]-N-phenyl-[1,3,5]triazine-2,4-diamine] — 4.8-fold higher, 813 nM
- CCN(c1ccccc1)c1nc(N)nc(-c2noc(-c3cccs3)n2)n1 [Example 96, N-Ethyl-N-phenyl-6-(5-thiophen-2-yl-[1,2,4]oxadiazol-3-yl)-[1,3,5]triazine-2,4-diamine] — 3-fold higher, 518 nM
- CCN(c1ccccc1)c1nc(N)nc(-c2noc(-c3ccc(C)o3)n2)n1 [Example 97, N-Ethyl-6-[5-(5-methyl-furan-2-yl)-[1,2,4]oxadiazol-3-yl]-N-phenyl-[1,3,5]triazine-2,4-diamine] — 7.6-fold higher, 1300 nM
- COc1ccccc1-c1nc(-c2nc(N)nc(N(C)c3cccc(F)c3)n2)no1 [Example 98, N-(3-Fluoro-phenyl)-6-[5-(2-methoxy-phenyl)-[1,2,4]oxadiazol-3-yl]-N-methyl-[1,3,5]triazine-2,4-diamine] — 1.9-fold higher, 318 nM
- CN(c1cccc(F)c1)c1nc(N)nc(-c2noc(-c3cccs3)n2)n1 [Example 99, N-(3-Fluoro-phenyl)-N-methyl-6-(5-thiophen-2-yl-[1,2,4]oxadiazol-3-yl)-[1,3,5]triazine-2,4-diamine] — 6.6-fold higher, 1130 nM
- CN(c1cccc(Cl)c1)c1nc(N)nc(-c2noc(-c3cccs3)n2)n1 [Example 101, N-(3-Chlorophenyl)-N-methyl-6-(5-thiophen-2-yl-[1,2,4]oxadiazol-3-yl)-[1,3,5]triazine-2,4-diamine] — within 1.5-fold, 206 nM
- Cc1ccc(-c2nc(-c3nc(N)nc(N(C)c4cccc(Cl)c4)n3)no2)o1 [Example 102, N-(3-Chloro-phenyl)-N-methyl-6-[5-(5-methyl-furan-2-yl)-[1,2,4]oxadiazol-3-yl]-[1,3,5]triazine-2,4-diamine] — 2.9-fold higher, 489 nM
- Cc1cccc(N(C)c2nc(N)nc(-c3noc(-c4ccco4)n3)n2)c1F [Example 107, N-(2-Fluoro-3-methyl-phenyl)-6-(5-furan-2-yl-[1,2,4]oxadiazol-3-yl)-N-methyl-[1,3,5]triazine-2,4-diamine] — 4.4-fold higher, 749 nM
- Nc1nc(Nc2cc(F)ccc2F)nc(-c2noc(-c3ccco3)n2)n1 [Example 109, N-(2,5-Difluoro-phenyl)-6-(5-furan-2-yl-[1,2,4]oxadiazol-3-yl)-[1,3,5]triazine-2,4-diamine] — 2.2-fold higher, 369 nM
- CN(c1ccccc1)c1nc(N)nc(-c2noc(-c3ccncc3)n2)n1 [Example 114, N-Methyl-N-phenyl-6-(5-pyridin-4-yl-[1,2,4]oxadiazol-3-yl)-[1,3,5]triazine-2,4-diamine] — 3.6-fold higher, 606 nM
- CN(c1ccccc1)c1nc(N)nc(-c2noc(-c3cccnc3)n2)n1 [Example 115, N-Methyl-N-phenyl-6-(5-pyridin-3-yl-[1,2,4]oxadiazol-3-yl)-[1,3,5]triazine-2,4-diamine] — 7.8-fold higher, 1320 nM
- CN(c1ccccc1)c1nc(N)nc(-c2noc(-c3ccncn3)n2)n1 [Example 120, N-Methyl-N-phenyl-6-(5-pyrimidin-4-yl-[1,2,4]oxadiazol-3-yl)-[1,3,5]triazine-2,4-diamine] — 13-fold higher, 2240 nM
- Nc1nc(-c2noc(-c3ccco3)n2)nc(N(CC2CC2)c2ccccc2)n1 [Example 121, N-Cyclopropylmethyl-6-(5-furan-2-yl-[1,2,4]oxadiazol-3-yl)-N-phenyl-[1,3,5]triazine-2,4-diamine] — 2.3-fold higher, 395 nM
- CN(c1ccccc1)c1nc(N)nc(-c2noc(-c3ccc(F)cc3)n2)n1 [Example 122, 6-[5-(4-Fluoro-phenyl)-[1,2,4]oxadiazol-3-yl]-N-methyl-N-phenyl-[1,3,5]triazine-2,4-diamine] — 3.8-fold higher, 644 nM
- CN(c1ccccc1)c1nc(N)nc(-c2noc(-c3cccc(F)c3)n2)n1 [Example 123, 6-[5-(3-Fluoro-phenyl)-[1,2,4]oxadiazol-3-yl]-N-methyl-N-phenyl-[1,3,5]triazine-2,4-diamine] — 5.5-fold higher, 929 nM
- CN(c1ccccc1)c1nc(N)nc(-c2noc(-c3ccccc3F)n2)n1 [Example 124, 6-[5-(2-Fluoro-phenyl)-[1,2,4]oxadiazol-3-yl]-N-methyl-N-phenyl-[1,3,5]triazine-2,4-diamine] — 2.5-fold higher, 428 nM
- Cc1ccsc1-c1nc(-c2nc(N)nc(N(C)c3ccccc3)n2)no1 [Example 126, N-Methyl-6-[5-(3-methyl-thiophen-2-yl)-[1,2,4]oxadiazol-3-yl]-N-phenyl-[1,3,5]triazine-2,4-diamine] — 4.6-fold higher, 782 nM
- CN(c1ccccc1)c1nc(N)nc(-c2noc(-c3cnco3)n2)n1 [Example 127, N-Methyl-6-(5-oxazol-5-yl-[1,2,4]oxadiazol-3-yl)-N-phenyl-[1,3,5]triazine-2,4-diamine] — 12-fold higher, 2080 nM
- CN(c1ccccc1)c1nc(N)nc(-c2noc(-c3ncco3)n2)n1 [Example 128, N-Methyl-6-(5-oxazol-2-yl-[1,2,4]oxadiazol-3-yl)-N-phenyl-[1,3,5]triazine-2,4-diamine] — 8.9-fold higher, 1510 nM

Same assay, conditions: no platform marker printed in the cell; read-out: Nav 1.7 activity

`Nc1nc(-c2noc(-c3ccco3)n2)nc(N2CCCc3ccccc32)n1` [Example 116, 4-(3,4-Dihydroquinolin-1-yl)-6-(5-furan-2-yl-[1,2,4]oxadiazol-3-yl)-[1,3,5]triazine-2-amine] showed an IC50 of 1620 nM.
